Test results reported in ChEMBL document CHEMBL1614632, “Trend analysis of a database of intravenous pharmacokinetic parameters in humans for 670 drug compounds” (Drug Metab Dispos, 2008).

Tests used:
[1] = clinical; settings: human, in vivo, iv, Vdss
[2] = clinical; settings: human, in vivo, iv, CL
[3] = clinical; settings: human, in vivo, iv
[4] = clinical; settings: human, in vivo, iv, t1/2

Row | SMILES | Vd [1] | clearance [2] | MRT [3] | half-life [4]
1 | CN(C)C(=O)Oc1ccc[n+](C)c1 [PYRIDOSTIGMINE] | 1.1 L/kg | 0.576 L/h/kg | 1.8 h | 1.5 h
2 | Clc1ccc2nsnc2c1NC1=NCCN1 [TIZANIDINE] | 2.4 L/kg | 0.66 L/h/kg | 3.6 h | 2.4 h
3 | Cc1ccsc1C(=CCCN1CCC[C@@H](C(=O)O)C1)c1sccc1C [TIAGABINE] | 1.1 L/kg | 0.096 L/h/kg | 12 h | 10 h
4 | CC(C)(O)c1ccccc1CC[C@@H](SCC1(CC(=O)O)CC1)c1cccc(/C=C/c2ccc3ccc(Cl)cc3n2)c1 [MONTELUKAST] | 0.15 L/kg | 0.0408 L/h/kg | 3.8 h | 5 h
5 | c1ccc2c(c1)OCC(C1=NCCN1)O2 (centres undefined) [IDAZOXAN] | 3.3 L/kg | 0.6 L/h/kg | 5.5 h | 4.2 h
6 | CC(=O)CCCCn1c(=O)c2c(ncn2C)n(C)c1=O [PENTOXIFYLLINE] | 1.8 L/kg | 2.34 L/h/kg | 0.77 h | 1.2 h
7 | C[C@@](O)(/C=C/[C@H]1CC=CC(=O)O1)[C@@H](C[C@@H](O)\C=C/C=C\C=C\CO)OP(=O)(O)O [FOSTRIECIN] | 0.086 L/kg | 0.072 L/h/kg | 1.2 h | 1.5 h
8 | C[C@]12CC[C@@H]3c4ccc(OC(=O)N(CCCl)CCCl)cc4CC[C@H]3[C@@H]1CC[C@@H]2OP(=O)(O)O [ESTRAMUSTINE PHOSPHATE] | 0.12 L/kg | 0.0564 L/h/kg | 2.1 h | 2.4 h
9 | CN1C2CCCC1CC(NC(=O)c1nn(C)c3ccccc13)C2 (centres undefined) [GRANISETRON] | 3.7 L/kg | 0.546 L/h/kg | 6.7 h | 5.2 h
10 | CCOc1ccccc1OC(c1ccccc1)C1CNCCO1 (centres undefined) [REBOXETINE] | 0.65 L/kg | 0.0492 L/h/kg | 13 h | 10 h
11 | Cc1nnc(SCC2=C(C(=O)O)N3C(=O)[C@@H](NC(=O)[C@H](O)c4ccccc4)[C@H]3SC2)s1 | 0.13 L/kg | 0.156 L/h/kg | 0.83 h | 1 h
12 | CC(C)(C)[C@]1(O)CC2OC(=O)CC23C(=O)OC2OC(=O)[C@H](O)C231 (some centres undefined) [BILOBALIDE] | 2.5 L/kg | 0.6 L/h/kg | 4 h | 3.2 h
13 | C[C@@H]1O[C@@H]1P(=O)(O)O [FOSFOMYCIN] | 0.32 L/kg | 0.12 L/h/kg | 2.7 h | 1.9 h
14 | OC(Cn1cncn1)(Cn1cncn1)c1ccc(F)cc1F [FLUCONAZOLE] | 0.75 L/kg | 0.0186 L/h/kg | 40 h | 30 h
15 | COc1cc(CC(=O)NCC(=O)N(CCC(=O)O)Cc2ccc(OC)c(OC)c2)ccc1NC(=O)Nc1ccccc1C | 0.25 L/kg | 0.66 L/h/kg | 0.38 h | 1.6 h
16 | CC(C)(C)NCC(O)c1cc(O)cc(O)c1 (centres undefined) [TERBUTALINE] | 1.5 L/kg | 0.204 L/h/kg | 7.4 h | 15 h
17 | COc1cc2c(N)nc(N3CCN(C(=O)OCC(C)(C)O)CC3)nc2c(OC)c1OC [TRIMAZOSIN] | 0.18 L/kg | 0.0576 L/h/kg | 3.1 h | 3.1 h
18 | CN1CCOC(c2ccccc2)c2ccccc2C1 (centres undefined) [NEFOPAM] | 5.6 L/kg | 0.72 L/h/kg | 8.1 h | 5 h
19 | C[C@H](N[C@@H](CCc1ccccc1)C(=O)O)C(=O)N1CCC[C@H]1C(=O)O [ENALAPRILAT ANHYDROUS] | 0.38 L/kg | 0.096 L/h/kg | 4 h | 39 h
20 | COc1ccc(Cc2nccc3cc(OC)c(OC)cc23)cc1OC [PAPAVERINE] | 0.95 L/kg | 0.66 L/h/kg | 1.4 h | 1.8 h
21 | O=C1c2ccccc2S(=O)(=O)N1CCCCNC[C@H]1CCc2ccccc2O1 [REPINOTAN] | 0.21 L/kg | 0.132 L/h/kg | 1.6 h | 1.2 h
22 | CN1C(=O)[C@H](O)C[C@H]1c1cccnc1 | 0.85 L/kg | 0.108 L/h/kg | 7.9 h | 5.9 h
23 | c1ccc(C2(N3CCCCC3)CCCCC2)cc1 [PHENCYCLIDINE] | 6.9 L/kg | 0.306 L/h/kg | 23 h | 16 h
24 | CCOc1ccccc1OCC1CNCCO1 (centres undefined) [VILOXAZINE] | 0.73 L/kg | 0.126 L/h/kg | 5.8 h | 4.1 h
25 | N=C(N)NC(=O)Cc1c(Cl)cccc1Cl [GUANFACINE] | 5.6 L/kg | 0.27 L/h/kg | 22 h | 15 h
26 | O=C(O)Cn1c(=O)c(=O)[nH]c2cc([N+](=O)[O-])c(-n3ccnc3)cc21 [ZONAMPANEL] | 0.19 L/kg | 0.318 L/h/kg | 0.6 h | 0.78 h

Row | SMILES | Vd [1] | clearance [2] | MRT [3] | half-life [4]
27 | CC1CCCC(C)N1CCCC(O)(c1ccccc1)c1ccccn1 (centres undefined) [PIRMENOL] | 1.4 L/kg | 0.108 L/h/kg | 13 h | 8.4 h
28 | CN(C)C(=O)Oc1cc(OC(=O)N(C)C)cc(C(O)CNC(C)(C)C)c1 (centres undefined) [BAMBUTEROL] | 1.6 L/kg | 1.08 L/h/kg | 1.4 h | 2.6 h
29 | Cc1cc(O)c2c(=O)c3c(O)cc(O)c4c5c(O)cc(O)c6c(=O)c7c(O)cc(C)c8c1c2c(c34)c(c78)c65 [HYPERICIN] | 0.25 L/kg | 0.0078 L/h/kg | 32 h | 42 h
30 | CC[N+](C)(C)c1cccc(O)c1.[Br-] [EDROPHONIUM BROMIDE] | 1.1 L/kg | 0.576 L/h/kg | 1.9 h | 1.8 h
31 | CN(C)/N=N/c1ccc(C(=O)O)cc1 | 0.25 L/kg | 0.078 L/h/kg | 3 h | 2.5 h
32 | CC(C)(C)NC(=O)[C@H]1CC[C@H]2[C@@H]3CC=C4C=C(C(=O)O)CC[C@]4(C)[C@H]3CC[C@]12C [EPRISTERIDE] | 0.54 L/kg | 0.0198 L/h/kg | 27 h | 27 h
33 | CC1(C)S[C@@H]2[C@H](NC(=O)COc3ccccc3)C(=O)N2[C@H]1C(=O)O [PENICILLIN V] | 0.41 L/kg | 0.408 L/h/kg | 1 h | 0.84 h
34 | CN1CCN(CCCN2c3ccccc3Sc3ccc(Cl)cc32)CC1 [PROCHLORPERAZINE] | 22 L/kg | 0.96 L/h/kg | 23 h | 9 h
35 | C/C(=C\c1csc(C)n1)[C@@H]1C[C@@H]2O[C@]2(C)CCC[C@H](C)[C@H](O)[C@@H](C)C(=O)C(C)(C)[C@@H](O)CC(=O)N1 [IXABEPILONE] | 11 L/kg | 0.6 L/h/kg | 18 h | 17 h
36 | CN(C)CCCN1c2ccccc2Sc2ccc(Cl)cc21 [CHLORPROMAZINE] | 10 L/kg | 0.96 L/h/kg | 10 h | 11 h
37 | CCCc1nc2c(C)cc(-c3nc4ccccc4n3C)cc2n1Cc1ccc(-c2ccccc2C(=O)O)cc1 | 5.3 L/kg | 0.504 L/h/kg | 11 h | 20 h
38 | CCN(CC)CCNC(=O)c1cc(Cl)c(N)cc1OC [METOCLOPRAMIDE] | 3.2 L/kg | 0.342 L/h/kg | 9.4 h | 7.2 h
39 | Oc1ccc2c3c1O[C@H]1[C@@H](O)CC[C@@]4(O)[C@@H](C2)N(CC2CCC2)CC[C@]314 [NALBUPHINE] | 4.6 L/kg | 1.32 L/h/kg | 3.5 h | 3.7 h
40 | C[C@H](N[C@@H](CCc1ccccc1)C(=O)O)C(=O)N1Cc2ccccc2C[C@H]1C(=O)O | 0.13 L/kg | 0.0558 L/h/kg | 2.3 h | 2.3 h
41 | CCCNC(=O)NS(=O)(=O)c1ccc(Cl)cc1 [CHLORPROPAMIDE] | 0.19 L/kg | 0.0027 L/h/kg | 70 h | 46 h
42 | CC1=C(CO)C2=C(C)C3(CC3)[C@@](C)(O)C(=O)C2=C1 [IROFULVEN] | 3.1 L/kg | 8.4 L/h/kg | 0.4 h | 0.3 h
43 | CCCC[C@@H]1CC(=O)[C@]2(O)O[C@@H]3[C@@H](NC)[C@@H](O)[C@@H](NC)[C@H](O)[C@H]3O[C@@H]2O1 [TROSPECTOMYCIN] | 0.7 L/kg | 0.102 L/h/kg | 6.9 h | 11 h
44 | NS(=O)(=O)c1cc2c(cc1C(F)(F)F)NCNS2(=O)=O [HYDROFLUMETHIAZIDE] | 2.2 L/kg | 0.582 L/h/kg | 3.8 h | 5.2 h
45 | CN(CC(N)=O)C(=O)N(CCCl)N=O [SARCNU] | 0.76 L/kg | 0.54 L/h/kg | 1.4 h | 1 h
46 | CCCCCCCN(CC)CCCC(O)c1ccc(NS(C)(=O)=O)cc1 (centres undefined) [IBUTILIDE] | 12 L/kg | 1.56 L/h/kg | 7.7 h | 7 h
47 | O=C(O)c1cc(/N=N/c2ccc(O)c(C(=O)O)c2)ccc1O [OLSALAZINE] | 0.07 L/kg | 0.072 L/h/kg | 0.97 h | 0.9 h
48 | CC[C@H]1OC(=O)[C@H](C)[C@@H](O[C@H]2C[C@@](C)(OC)[C@@H](O)[C@H](C)O2)[C@H](C)[C@@H](O[C@@H]2O[C@H](C)C[C@H](N(C)C)[C@H]2O)[C@](C)(OC)C[C@@H](C)C(=O)[C@H](C)[C@@H](O)[C@]1(C)O [CLARITHROMYCIN] | 1.5 L/kg | 0.438 L/h/kg | 3.4 h | 2.8 h
49 | O=C1CN(/N=C/c2ccc(-c3ccc([N+](=O)[O-])cc3)o2)C(O)=N1 [DANTROLENE] | 0.37 L/kg | 0.0258 L/h/kg | 14 h | 10 h
50 | CNS(=O)(=O)Cc1ccc2[nH]cc(CCN(C)C)c2c1 | 1.7 L/kg | 1.14 L/h/kg | 1.5 h | 1.7 h
51 | C[C@H]1O[C@@H](O[C@H]2[C@@H](O)C[C@H](O[C@H]3[C@@H](O)C[C@H](O[C@H]4CC[C@@]5(C)[C@H](CC[C@@H]6[C@@H]5C[C@@H](O)[C@]5(C)[C@@H](C7=CC(=O)OC7)CC[C@]65O)C4)O[C@@H]3C)O[C@@H]2C)C[C@H](O)[C@@H]1O [DIGOXIN] | 4.1 L/kg | 0.102 L/h/kg | 40 h | 38 h
